Experimental data: US7875601B2, “Cancer treatment with epothilones” (Novartis AG, priority 1998, dated 2011)
Where “and” joins values, the source holds several entries; their conditions need not be identical. Identical values can stand only once. Marks after values point to notes of the source that are not given here.

Key:
A549 (Lung) = assay: Antiproliferative assay, A549; format: cell-based, human; conditions: A549, 5 d exposure, mean ± SD, n = 3 (epothilone B n = 2); read-out: IC50 for growth inhibition
Protocol: Antiproliferative assays are performed as previously described (Int. J. Cancer 43, 851-6 (1989)). Briefly, cells are seeded at 1.5×10^3 cells/well into 96-well microtiter plates and incubated overnight. Compounds are added in serial dilutions on day 1. The plates are then incubated for an additional 2 to 5 days, allowing for at least one cell doubling (cell line dependent), after which the cells are fixed with 3.3% v/v glutaraldehyde, washed with water and stained with 0.05% w/v methylene blue. After washing, the dye is eluted with 3% v/v HCl and the optical density measured at 665 nm with a SpectraMax 340 (Bucherer, Basel, Switzerland). IC50 values are determined by a computerized system (SoftPro, Bucherer, Basel, Switzerland) using the formula (OD test−OD start)/(OD control−OD start)×100. IC50 is defined as the drug concentration which leads to 50% of cells per well compared to control cultures (100%) at the end of incubation period.

[1] = GLP toxicology study in dogs; format: in vivo; conditions: dog
Description: Inclusion Criteria • The following criteria must be met for inclusion into the study: • 1. Male or female patients >18 years of age. • 2. […] At least one measurable, evaluable, or non-evaluable site of disease as defined by Southwestern Oncology Group (SWOG) Solid Tumor Response Criteria including tumor marker value that is above the institutional upper limit of normal. • 4. Women of childbearing potential must have a negative serum β-HCG pregnancy test prior to the initiation of study drug. Male and female patients of reproductive potential must agree to employ an effective method of birth control throughout the study and for up to 3 months following discontinuation of study drug. • 5. World Health Organization (WHO) Performance Status Score of ≦2. • 6. Life expectancy of at least 3 months. • 7. Written informed consent is obtained prior to any screening procedures. Exclusion Criteria • Exclusion from the study is required if any of the following apply: • 1. Female patients who are pregnant or breast-feeding. Postmenopausal women must be amenorrheic for at least 12 months to be considered of non-childbearing potential. • 2. […] This dose is calculated as one-third of the toxic dose low (TDL) in the most sensitive species studied which, for epothilone B, is the dog. […]

[2] = system: A549 non small cell lung tumors; assay: Antitumor activity on A549 tumors, regimen comparison (Example 7); conditions: for % Regression / % T/C / Delta % Body Weight / Delta Mean Tumor Vol. (mm^3): day 37
Protocol: 3-10 million cells are implanted s.c. into the right axillary (lateral) region of outbred athymic (nu/nu) mice, and are allowed to grow until a tumor volume of approximately 100 mm^3 is established. […] Positive controls are carried out with clinical formulations of TAXOL® diluted 6 fold with D5W and administered i.v. 3×/week.
Antitumor activity is expressed as % T/C (comparing Δ tumor volumes for treatment group to vehicle control group) at the end of the experiment. Regressions are calculated using the formula: −(T/T0−1)×100%, where T is the tumor volume for the treatment group at the end of the experiment, and T0 is the tumor volume at the beginning of the experiment. Statistical significance is evaluated using a one-tailed Student's t-test.

[3] = system: A549 non-small cell lung tumors; assay: Antitumor activity on A549 tumors, once weekly dosing (Example 8); format: in vivo, outbred athymic (nu/nu) mice; conditions: for body weight loss: 3 weeks experiment, reversible
Description: Materials and methods pertaining to the human tumor xenograft model are as previously described.
Measurements are taken for an additional 2 weeks after completion of the regular 3 weeks experiments, to evaluate reversibility of drug-induced body weight loss, and sustainability of antitumor effects.

[4] = 1 mg/kg i.v. once weekly for 3 weeks, day 34
[5] = 1 mg/kg once weekly for 3 weeks, extended observation, day 48
[6] = 2 mg/kg i.v. once weekly for 3 weeks, day 34
[7] = 2 mg/kg once weekly for 3 weeks, extended observation, day 48
[8] = 3 mg/kg i.v. once weekly for 3 weeks, day 34
[9] = 3 mg/kg once weekly for 3 weeks, extended observation, day 48
[10] = 3.5 mg/kg i.v. once weekly for 3 weeks, day 34
[11] = 3.5 mg/kg once weekly for 3 weeks, extended observation, day 48

C/C(=C\c1csc(C)n1)[C@@H]1C[C@@H]2O[C@]2(C)CCC[C@H](C)[C@H](O)[C@@H](C)C(=O)C(C)(C)[C@@H](O)CC(=O)O1 [epothilone B]
IC50 (A549 (Lung)): 190 ± 120 pM | Mortalities ([1]; 0.1 mg/kg, repeated once 3 weeks later): no mortalities | toxic dose low (TDL) ([1]; most sensitive species, estimated): ~0.65 mg/kg | Dead/Total ([2]; 0.5 mg/kg i.v. 5x/week): 0/8 | % Regression ([2]; 0.5 mg/kg i.v. 5x/week): none | % T/C ([2]; 0.5 mg/kg i.v. 5x/week): 41** % | Delta % Body Weight ([2]; 0.5 mg/kg i.v. 5x/week): −23.1% | Delta Mean Tumor Vol. (mm^3) ([2]; 0.5 mg/kg i.v. 5x/week): 178 mm^3 | % T/C ([2]; 0.5 mg/kg i.v. 5x/week, listed as Epothilone B): 41% | body weight loss ([2]; 0.5 mg/kg, 5×/week): 23% | Dead/Total ([2]; 1.5 mg/kg i.v. 3x/week): 8/8 | Dead/Total ([2]; 1.5 mg/kg i.v. 3x/week, listed as Epothilone B): all animals have to be euthanatized | body weight loss ([2]; 4 mg/kg administered 1×/week): 13% | Dead/Total ([2]; 4 mg/kg i.v. 1x/week): 0/8 | % Regression ([2]; 4 mg/kg i.v. 1x/week): none | % T/C ([2]; 4 mg/kg i.v. 1x/week): 7** % | Delta % Body Weight ([2]; 4 mg/kg i.v. 1x/week): −13.2% | Delta Mean Tumor Vol. (mm^3) ([2]; 4 mg/kg i.v. 1x/week): 32 mm^3 | % T/C ([2]; 4 mg/kg i.v. 1x/week, listed as Epothilone B): 7% | Dead/Total ([2]; 6 mg/kg i.v. once (day 16)): 0/8 | % Regression ([2]; 6 mg/kg i.v. once (day 16)): none | % T/C ([2]; 6 mg/kg i.v. once (day 16)): 41** % | Delta % Body Weight ([2]; 6 mg/kg i.v. once (day 16)): +8.5% | Delta Mean Tumor Vol. (mm^3) ([2]; 6 mg/kg i.v. once (day 16)): 178 mm^3 | % T/C ([2]; 6 mg/kg i.v. once (day 16), listed as Epothilone B): 41% | % T/C [3, 4]: 74% and 74^*,** % | Dead/Total [3, 4]: 0/8 | Delta % Body Weight [3, 4]: +10.8% | Delta Mean Tumor Vol. (mm^3 ± SEM) [3, 4]: 195 ± 21 mm^3 | Dead/Total [3, 5]: 0/8 | Delta % Body Weight [3, 5]: +12.6% | Delta Mean Tumor Vol. (mm^3 ± SEM) [3, 5]: 339 ± 24 mm^3 | % T/C ([3]; 1 mg/kg once weekly for 3 weeks, extended observation, day 48 (week 5)): 72% | % T/C [3, 6]: 43% and 43*^,** % | Dead/Total [3, 6]: 0/8 | Delta % Body Weight [3, 6]: +0.9% | Delta Mean Tumor Vol. (mm^3 ± SEM) [3, 6]: 113 ± 21 mm^3 | Dead/Total [3, 7]: 0/8 | Delta % Body Weight [3, 7]: +13.5% | Delta Mean Tumor Vol. (mm^3 ± SEM) [3, 7]: 232 ± 39 mm^3 | % T/C ([3]; 2 mg/kg once weekly for 3 weeks, extended observation, day 48 (week 5)): 49* % | % T/C [3, 8]: 23% and 23*^,** % | Dead/Total [3, 8]: 0/8 | Delta % Body Weight [3, 8]: −16.4% | Delta Mean Tumor Vol. (mm^3 ± SEM) [3, 8]: 60 ± 22 mm^3 | Dead/Total [3, 9]: 0/8 | Delta % Body Weight [3, 9]: +13.2% | Delta Mean Tumor Vol. (mm^3 ± SEM) [3, 9]: 75 ± 25 mm^3 | % T/C ([3]; 3 mg/kg once weekly for 3 weeks, extended observation, day 48 (week 5)): 16*^,** % | body weight loss ([3]; 3 mg/kg once weekly): approximately 15% | % T/C [3, 10]: 15% and 15*^,** % | Dead/Total [3, 10]: 0/8 | Delta % Body Weight [3, 10]: −14.6% | Delta Mean Tumor Vol. (mm^3 ± SEM) [3, 10]: 40 ± 15 mm^3 | Dead/Total [3, 11]: 0/8 | Delta % Body Weight [3, 11]: +9.7% | Delta Mean Tumor Vol. (mm^3 ± SEM) [3, 11]: 58 ± 25 mm^3 | % T/C ([3]; 3.5 mg/kg once weekly for 3 weeks, extended observation, day 48 (week 5)): 12*^,** % | body weight loss ([3]; 3.5 mg/kg once weekly): approximately 15%
